Experimental data: US10799494B2, “Combination of respiratory electron transport chain inhibitors with a cytochrome bd inhibitor” (priority 2015, dated 2020)

Assays:
[1] = molecular target: M. tuberculosis cytochrome bd-I (Mycobacterium tuberculosis, UniProt L7N662); format: biochemical
M. tuberculosis H37Rv = M. tuberculosis H37Rv growth inhibition screen at fixed 5 μM; format: cell-based, Mycobacterium tuberculosis; details: 5 μM compound; for activity at 5 µM: Mycobacterium tuberculosis, H37RV, aerobic, read-out: Growth of M. tuberculosis H37Rv (aerobic) at 5 μM of [compounds]

Sequence of M. tuberculosis cytochrome bd-I (L7N662 1-485): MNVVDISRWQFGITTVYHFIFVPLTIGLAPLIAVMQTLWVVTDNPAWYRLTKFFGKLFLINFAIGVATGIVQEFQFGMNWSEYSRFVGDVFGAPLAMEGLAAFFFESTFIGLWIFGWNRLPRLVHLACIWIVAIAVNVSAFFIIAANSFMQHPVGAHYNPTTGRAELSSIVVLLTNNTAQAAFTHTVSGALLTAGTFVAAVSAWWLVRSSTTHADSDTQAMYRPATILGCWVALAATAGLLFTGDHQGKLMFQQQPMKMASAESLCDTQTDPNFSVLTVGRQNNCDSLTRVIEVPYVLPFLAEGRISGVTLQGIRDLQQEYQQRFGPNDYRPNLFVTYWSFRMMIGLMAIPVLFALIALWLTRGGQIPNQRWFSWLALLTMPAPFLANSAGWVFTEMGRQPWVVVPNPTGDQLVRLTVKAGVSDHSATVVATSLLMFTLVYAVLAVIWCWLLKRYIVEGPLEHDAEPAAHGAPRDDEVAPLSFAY

Molecule: 3-Methyl-2-(1-(4-(trifluoromethoxy)phenethyl)-1H-pyrazol-4-yl)quinolin-4(1H)-one [WDH-2R-4]
- inhibition @ 1 uM (% of cntls) [1]: 56.2 % of cntls
- IC50 ([1]; additional compounds, […]): 380 nM

Molecule: Cc1c(-c2cccc(Cc3ccc(OC(F)(F)F)cc3)c2)[nH]c2ccccc2c1=O [CK-2-58, 3-Methyl-2-(3-(4-(trifluoromethoxy)benzyl)phenyl)quinolin-4(1H)-one]
- inhibition @ 1 uM (% of cntls) [1]: 82.3 % of cntls

Molecule: COc1ccc(Cc2ccc(-c3[nH]c4ccccc4c(=O)c3C)cc2)cc1 [CK-2-96, 2-(4-(4-Methoxybenzyl)phenyI)-3-methylquinolin-4(1H)-one]
- inhibition @ 1 uM (% of cntls) [1]: 85.7 % of cntls

Molecule: Cc1c(-c2ccc(Oc3ccc(F)cc3)nc2)[nH]c2ccccc2c1=O [CK-3-14, 2-(6-(4-Fluorophenoxy)pyridin-3-yl)-3-methylquinolin-4(1H)-one]
- activity at 5 µM (M. tuberculosis H37Rv): 100%

Molecule: Cc1c(-c2ccc(Oc3ccc(OC(F)(F)F)cc3)nc2)[nH]c2ccccc2c1=O [CK-3-22, 3-Methyl-2-(6-(4-(trifluoromethoxy)phenoxy)pyridin-3-yl)quinolin-4(1H)-one]
- inhibition @ 1 uM (% of cntls) [1]: 62.8 % of cntls

Molecule: COc1c(C)c(-c2ccc(Cc3ccccc3)cc2)nc2ccccc12 [CK-3-23, 2-(4-Benzylphenyl)-4-methoxy-3-methylquinoline]
- activity at 5 µM (M. tuberculosis H37Rv): 6.6%

Molecule: O=c1cc(-c2ccc(Cc3ccc(OC(F)(F)F)cc3)cc2)[nH]c2cc(O)c(F)cc12 [CK-3-68, 6-Fluoro-7-hydroxy-2-(4-(4-(trifluoromethoxy)benzyl)phenyl)quinolin-4(1H)-one]
- inhibition @ 1 uM (% of cntls) [1]: 71.7 % of cntls

Molecule: Cc1c(-c2ccc(Oc3cccc(OCCN4CCOCC4)c3)cc2)[nH]c2ccccc2c1=O [CK-4-15, 3-Methyl-2-(4-(3-(2-morpholinoethoxy)phenoxy)phenyl)quinolin-4(1H)-one]
- inhibition @ 1 uM (% of cntls) [1]: 66.6 % of cntls

Molecule: CCOC(=O)c1c(-c2ccc(Cc3ccc(OC(F)(F)F)cc3)cc2)[nH]c2ccccc2c1=O [GN-1710, Ethyl 4-oxo-2-(4-(4-(trifluoromethoxy)benzyl)phenyI)-1,4-dihydroquinoline-3-carboxylate]
- activity at 5 µM (M. tuberculosis H37Rv): 100%

Molecule: Cc1c(-c2ccc(N3CCCCC3)cc2)[nH]c2cc(F)cc(F)c2c1=O [MTD-403, 5,7-Difluoro-3-methyl-2-(4-(piperidin-1-yl)phenyl)quinolin-4(1H)-one]
- Growth of M. tuberculosis H37Rv (aerobic) at 5 μM of [compounds] (M. tuberculosis H37Rv): No growth

Molecule: Cc1c(-c2ccc(OC3CCC(F)(F)CC3)cc2)[nH]c2ccccc2c1=O [PG105, 2-(4-((4,4-Difluorocyclohexyl)oxy)phenyI)-3-methylquinolin-4(1H)-one]
- inhibition @ 1 uM (% of cntls) [1]: 71.5 % of cntls

Molecule: Cc1c(-c2ccc(Cc3cccc(OCCN4CCOCC4)c3)cc2)[nH]c2ccccc2c1=O [PG201, 3-Methyl-2-(4-(3-(2-morpholinoethoxy)benzyl)phenyl)quinolin-4(1H)-one]
- inhibition @ 1 uM (% of cntls) [1]: 68.7 % of cntls

Molecule: O=c1c(-c2ccc(Oc3ccc(OC(F)(F)F)cc3)cc2)c(CO)[nH]c2ccccc12 [PG208, 2-(Hydroxymethyl)-3-(4-(4-(trifluoromethoxy)phenoxy)phenyl)quinolin-4(1H)-one]
- inhibition @ 1 uM (% of cntls) [1]: 66.7 % of cntls

Molecule: Cc1c(-c2ccc(-c3ccc(C(F)(F)F)nc3)nc2)[nH]c2ccccc2c1=O [PG-128, 3-Methyl-2-(6′-(trifluoromethyl)-[2,3′-bipyridin]-5-yl)quinolin-4(1H)-one]
- activity at 5 µM (M. tuberculosis H37Rv): 95.6%

Molecule: Cc1[nH]c2ccccc2c(=O)c1-c1ccc(Oc2ccc(OC(F)(F)F)cc2)cc1 [PG-203, 2-Methyl-3-(4-(4-(trifluoromethoxy)phenoxy)phenyl)quinolin-4(1H)-one]
- activity at 5 µM (M. tuberculosis H37Rv): 100%

Molecule: Cc1c(-c2ccc(-c3ccc(C(F)(F)F)cc3)nc2)[nH]c2ccccc2c1=O [RKA 142, 3-Methyl-2-(6-(4-(trifluoromethyl)phenyl)pyridin-3-yl)quinolin-4(1H)-one]
- inhibition @ 1 uM (% of cntls) [1]: >50 % of cntls

Molecule: O=c1cc(-c2ccc(Cc3ccc(OC(F)(F)F)cc3)cc2)n(O)c2ccccc12 [RKA-73, 1-Hydroxy-2-(4-(4-(trifluoromethoxy)benzyl)phenyl)quinolin-4(1H)-one]
- activity at 5 µM (M. tuberculosis H37Rv): 100%

Molecule: COc1ccc2c(=O)c(C)c(-c3ccc(Oc4ccc(OC(F)(F)F)cc4)nc3)[nH]c2c1 [RKA-259, 7-Methoxy-3-methyl-2-(6-(4-(trifluoromethoxy)phenoxy)pyridin-3-yl)quinolin-4(1H)-one]
- activity at 5 µM (M. tuberculosis H37Rv): 12.6%

Molecule: Cc1c(-c2ccc(N3CCCCC3)cc2)[nH]c2ccccc2c1=O [RKA-307, 3-Methyl-2-(4-(piperidin-1-yl)phenyl)quinolin-4(1H)-one]
- activity at 5 µM (M. tuberculosis H37Rv): 1.8%

Molecule: COc1ccc2c(=O)c(C)c(-c3ccc(N4CCCCC4)cc3)[nH]c2c1 [RKA-310, 7-methoxy-3-methyl-2-(4-(piperidin-1-yl)phenyl)quinolin-4(1H)-one]
- Growth of M. tuberculosis H37Rv (aerobic) at 5 μM of [compounds] (M. tuberculosis H37Rv): No growth

Molecule: COc1cccc2[nH]c(-c3ccc(-c4ccc(OC(F)(F)F)cc4)nc3)c(C)c(=O)c12 [SCR-04-04, 5-Methoxy-3-methyl-2-(6-(4-(trifluoromethoxy)phenyl)pyridin-3-yl)quinolin-4(1H)-one]
- inhibition @ 1 uM (% of cntls) [1]: 65.4 % of cntls

Molecule: COc1ccc2[nH]c(-c3ccc(Cc4ccc(OC(F)(F)F)cc4)cc3)c(C)c(=O)c2c1 [SCR-05-03, 6-Methoxy-3-methyl-2-(4-(4-(trifluoromethoxy)benzyl)phenyl)quinolin-4(1H)-one]
- inhibition @ 1 uM (% of cntls) [1]: 60.9 % of cntls

Molecule: Cc1c(-c2ccc(Cc3ccc(OC(F)(F)F)cc3)cc2)[nH]c2c(O)cccc2c1=O [SCR-06-03D, 8-Hydroxy-3-methyl-2-(4-(4-(trifluoromethoxy)benzyl)phenyl)quinolin-4(1H)-one]
- inhibition @ 1 uM (% of cntls) [1]: 73.1 % of cntls

Molecule: Cc1c(-c2ccc(Cc3ccc(OC(F)(F)F)cc3)cc2)[nH]c2cc(O)ccc2c1=O [SCR-45-01D, 7-Hydroxy-3-methyl-2-(4-(4-(trifluoromethoxy)benzyl)phenyl)quinolin-4(1H)-one]
- inhibition @ 1 uM (% of cntls) [1]: 81.5 % of cntls

Molecule: Cc1c(-c2ccc(-c3ccccc3C(F)(F)F)cc2)[nH]c2ccccc2c1=O [SL-2-36, 3-Methyl-2-(2′-(trifluoromethyl)-[1,1′-biphenyl]-4-yl)quinolin-4(1H)-one]
- inhibition @ 1 uM (% of cntls) [1]: 90.5 % of cntls

Molecule: Cc1c(-c2ccc(-c3ccccc3F)cc2)[nH]c2ccccc2c1=O [SL-3-3, 2-(2′-Fluoro-[1,1′-biphenyl]-4-yl)-3-methylquinolin-4(1H)-one]
- inhibition @ 1 uM (% of cntls) [1]: 62.2 % of cntls

Molecule: CCOC(=O)c1c(-c2ccc(-c3ccc(Cl)cc3)cc2)[nH]c2ccccc2c1=O [WDH-1U-10, Ethyl 2-(4′-chloro-[1,1′-biphenyl]-4-yl)-4-oxo-1,4-dihydroquinoline-3-carboxylate]
- activity at 5 µM (M. tuberculosis H37Rv): 82.2%

Molecule: CCOC(=O)c1c(-c2ccc(-c3ccc(Cl)cc3)cc2)[nH]c2ccccc2c1=O [WDH-1V-9, Ethyl 2-(4′-chloro-[1,1′-biphenyl]-4-yl)-4-oxo-1,4-dihydroquinoline-3-carboxylate]
- inhibition @ 1 uM (% of cntls) [1]: 87.5 % of cntls

Molecule: CCOC(=O)c1c(-c2ccc(-c3ccc(OC(F)(F)F)cc3)cc2)[nH]c2ccccc2c1=O [WDH-1V-10, Ethyl 4-oxo-2-(4′-(trifluoromethoxy)-[1,1′-biphenyl]-4-yl)-1,4-dihydroquinoline-3-carboxylate]
- inhibition @ 1 uM (% of cntls) [1]: 79.4 % of cntls

Molecule: O=c1cc(-c2cnn(Cc3ccc(OC(F)(F)F)cc3)c2)[nH]c2ccccc12 [WDH-1W-5, 2-(1-(4-(Trifluoromethoxy)benzyl)-1H-pyrazol-4-yl)quinolin-4(1H)-one]
- activity at 5 µM (M. tuberculosis H37Rv): 61.3%
